Columns and labels:
Type in all cases: physicochemical
[1] = Compression tests, pellet analysed by PXRD; settings: 100 mg, 13 mm die, 10-Ton pressure for 15 minutes
Protocol: Compression tests were performed on the crystalline forms (alpha, beta) and on the amorphous form of lanifibranor. 100 mg of each sample were introduced between […] into a 13 mm die and subjected to a 10-Ton pressure for 15 minutes. The pellet obtained was then de-compacted and analysed by PXRD in order to monitor changes in the crystal structure of the sample.

[2] = Screening for solid forms of lanifibranor
Source text: An amorphous form was further obtained.

[3] = Competitive slurry tests (stability tests) in various solvents, solid analysed by PXRD; settings: room temperature; for Form(s) present T0: immediately after stirring was initiated
Protocol: Competitive slurry tests were performed in various solvents such as acetone, ethanol, ethyl acetate, acetic acid, methyl ethyl ketone and methyl isobutyl ketone.
A saturated solution of lanifibranor form beta (as obtained in example 2) was prepared for each solvent. An equal amount of lanifibranor form alpha and lanifibranor form beta was introduced into a vial (50 mg+50 mg), and 250 μL of the saturated solution prepared beforehand (recovered by filtration through a 0.2 μm H-PTFE filter) were then added. The mixture was stirred at room temperature, samples of the solid were taken immediately after stirring was initiated and 24 hours after, and analyzed by PXRD to identify the solid form(s) present.

[4] = Thermogravimetry (TGA) analysis; settings: temperature range 25-200° C.
Protocol: TGA analysis was conducted on a Mettler Toledo TGA/DSC3+ thermogravimetric analyzer. Analyses were performed on a few milligrams of sample, in 100 µL sealed aluminum pans, punctured before analysis, under nitrogen flush at 50 mL/min. A temperature range between 25° C. and 300° C. was scanned at a 10° C./min rate.

[5] = Stability testing in accordance with EMA guidance (CPMP/ICH/2736/99), PXRD and DSC after storage
Protocol: Lanifibranor form beta, as obtained in example 2, was submitted to stability testing in accordance with EMA guidance (CPMP/ICH/2736/99, last revised in August 2003); the drug substance was thus stored under the following conditions: • 6 months at 30° C./65° RH, • 6 months at 40° C./75% RH, and • 12 months at 25° C./60% RH.
At the end of each storage period, the drug substance was characterized by PXRD and by DSC.

[6] = Dynamic vapor sorption (DVS) analysis; settings: range 0% RH-95% RH, 25° C.
Protocol: DVS analysis was conducted on a SMS DVS Intrinsic system. Analyses were performed on a few milligrams of sample, in open aluminum pans at 25° C. The stability criterion for each step was a weight change lower than 0.002% on a 5 min time frame. The time criterion for each step was 100 min (minimum duration by step: 10 min). Relative humidity was scanned between 0% RH and 95% RH with 10% RH steps (40-0-95-0-95).

O=C(O)CCCc1cc2cc(Cl)ccc2n1S(=O)(=O)c1ccc2ncsc2c1 [amorphous form, 1-(6-benzothiazolylsulfonyl)-5-chloro-1H-indole-2-butanoic acid]
change in the solid form after compression (PXRD) [1]: weak diffraction signals corresponding to form beta were detected after compression
stability of the solid form upon handling/processing [2]: crystallize into form alpha or form beta even at low temperatures

O=C(O)CCCc1cc2cc(Cl)ccc2n1S(=O)(=O)c1ccc2ncsc2c1 [lanifibranor form alpha, 1-(6-benzothiazolylsulfonyl)-5-chloro-1H-indole-2-butanoic acid]
change in the solid form after compression (PXRD) [1]: additional signals that could correspond to peak shifts caused by a transformation to form beta
stability of the solid form upon handling/processing [2]: did readily convert to the other form upon handling/processing

O=C(O)CCCc1cc2cc(Cl)ccc2n1S(=O)(=O)c1ccc2ncsc2c1 [1-(6-benzothiazolylsulfonyl)-5-chloro-1H-indole-2-butanoic acid]
Form(s) present T0 + 24 h ([3]; acetic acid): form beta
Form(s) present T0 ([3]; acetic acid): form alpha + form beta
Form(s) present T0 + 24 h ([3]; acetone): form beta
Form(s) present T0 ([3]; acetone): form alpha + form beta
Form(s) present T0 + 24 h ([3]; ethanol): form beta
Form(s) present T0 ([3]; ethanol): form alpha + form beta
Form(s) present T0 + 24 h ([3]; ethyl acetate): form beta
Form(s) present T0 ([3]; ethyl acetate): form alpha + form beta
Form(s) present T0 + 24 h ([3]; methyl ethyl ketone): form beta
Form(s) present T0 ([3]; methyl ethyl ketone): form alpha + form beta
Form(s) present T0 + 24 h ([3]; methyl isobutyl ketone): form beta
Form(s) present T0 ([3]; methyl isobutyl ketone): form alpha + form beta

O=C(O)CCCc1cc2cc(Cl)ccc2n1S(=O)(=O)c1ccc2ncsc2c1 [lanifibranor form beta, 1-(6-benzothiazolylsulfonyl)-5-chloro-1H-indole-2-butanoic acid]
change in the solid form after compression (PXRD) [1]: no significant change in the solid form
weight loss in TGA curve [4]: does not highlight any significant weight loss
stability of the solid form upon handling/processing [2]: more stable form
solid form stability on storage (PXRD and DSC) ([5]; 6 months at 30° C./65° RH): stable over long-term storage
solid form stability on storage (PXRD and DSC) ([5]; 6 months at 40° C./75% RH): stable over long-term storage
solid form stability on storage (PXRD and DSC) ([5]; 12 months at 25° C./60% RH): stable over long-term storage
maximum uptake (weight variation) in DVS [6]: +0.1%
relative stability of the solid forms ([3]; conclusion from the competitive slurries in all solvents): most stable form at room temperature
